For assay [1], the target named is T1, human mGlu5a receptor (Homo sapiens (Human), UniProt P41594). Briefly: MPEP binding assay ([3H]MPEP displacement). As to conditions: for pEC50: [3H]MPEP 2 nM, EBNA cell membranes, read-out: mGlu5-MPEP binding EC50; for Ki: comparison table. The protocol:
For binding experiments, cDNA encoding human mGlu5a receptor was transiently transfected into EBNA cells using a procedure described by Schlaeger and Christensen [Cytotechnology 15:1-13 (1998)]. Cell membrane homogenates were stored at −80° C. until the day of assay where upon they were thawed and resuspended and polytronised in 15 mM Tris-HCl, 120 mM NaCl, 100 mM KCl, 25 mM CaCl2, 25 mM MgCl2 binding buffer at pH 7.4 to a final assay concentration of 20 μg protein/well.
Saturation isotherms were determined by addition of twelve [^3H]MPEP concentrations (0.04-100 nM) to these membranes (in a total volume of 200 μl) for 1 h at 4° C. Competition experiments were performed with a fixed concentration of [^3H]MPEP (2 nM) and IC50 values of test compounds evaluated using 11 concentrations (0.3-10,000 nM). Incubations were performed for 1 h at 4° C.
At the end of the incubation, membranes were filtered onto unifilter (96-well white microplate with bonded GF/C filter preincubated 1 h in 0.1% PEI in wash buffer, Packard BioScience, Meriden, Conn.) with a Filtermate 96 harvester (Packard BioScience) and washed 3 times with cold 50 mM Tris-HCl, pH 7.4 buffer. Nonspecific binding was measured in the presence of 10 μM MPEP. The radioactivity on the filter was counted (3 min) on a Packard Top-count microplate scintillation counter with quenching correction after addition of 45 μl of microscint 40 (Canberra Packard S. A., Zürich, Switzerland) and shaking for 20 min.

In assay [2] the target is T1, human mGlu5a receptor. Put plainly: Intracellular Ca2+ mobilization assay (mGlu5 PAM assay). It counts as cell-based. As to conditions: for mGlu5 PAM EC50: HEK-293 cells, glutamate at EC20; for Activity profile: PAM or NAM; for EC50 (nM) mGlu5 PAM assay: comparison table; for Efficacy: maximal response in % of maximal stimulatory effect of saturating L-glutamate. As for the experimental part:
A monoclonal HEK-293 cell line stably transfected with a cDNA encoding for the human mGlu5a receptor was generated; for the work with mGlu5 Positive Allosteric Modulators (PAMs), a cell line with low receptor expression levels and low constitutive receptor activity was selected to allow the differentiation of agonistic versus PAM activity. Cells were cultured according to standard protocols (Freshney, 2000) in Dulbecco's Modified Eagle Medium with high glucose supplemented with 1 mM glutamine, 10% (vol/vol) heat-inactivated bovine calf serum, Penicillin/Streptomycin, 50 μg/ml hygromycin and 15 μg/ml blasticidin (all cell culture reagents and antibiotics from Invitrogen, Basel, Switzerland).
About 24 hrs before an experiment, 5×10^4 cells/well were seeded in poly-D-lysine coated, black/clear-bottomed 96-well plates. The cells were loaded with 2.5 μM Fluo-4AM in loading buffer (1×HBSS, 20 mM HEPES) for 1 hr at 37° C. and washed five times with loading buffer. The cells were transferred into a Functional Drug Screening System 7000 (Hamamatsu, Paris, France), and 11 half logarithmic serial dilutions of test compound at 37° C. were added and the cells were incubated for 10-30 min with on-line recording of fluorescence. Following this pre-incubation step, the agonist L-glutamate was added to the cells at a concentration corresponding to EC20 (typically around 80 μM) with on-line recording of fluorescence; in order to account for day-to-day variations in the responsiveness of cells, the EC20 of glutamate was determined immediately ahead of each experiment by recording of a full dose-response curve of glutamate.
Responses were measured as peak increase in fluorescence minus basal (i.e. fluorescence without addition of L-glutamate), normalized to the maximal stimulatory effect obtained with saturating concentrations of L-glutamate. Graphs were plotted with the % maximal stimulatory using XLfit, a curve fitting program that iteratively plots the data using Levenburg Marquardt algorithm. The single site competition analysis equation used was y=A+((B−A)/(1+((x/C)D))), where y is the % maximal stimulatory effect, A is the minimum y, B is the maximum y, C is the EC50, x is the log 10 of the concentration of the competing compound and D is the slope of the curve (the Hill Coefficient). From these curves the EC50 (concentration at which half maximal stimulation was achieved), the Hill coefficient as well as the maximal response in % of the maximal stimulatory effect obtained with saturating concentrations of L-glutamate were calculated.
A depression of the signal observed after addition of the EC20 concentration of L-glutamate was indicative of an inhibitory activity of the test compound.
Background: Calcium flux is commonly read through the fluorescence of an indicator in the cells.

The nature of assay [3]: rat Vogel conflict drinking test. It counts as in vivo.

pEC50: −log10 of the molar value.

T1 sequence (P41594 other isoform, or with tags, fused parts or gaps): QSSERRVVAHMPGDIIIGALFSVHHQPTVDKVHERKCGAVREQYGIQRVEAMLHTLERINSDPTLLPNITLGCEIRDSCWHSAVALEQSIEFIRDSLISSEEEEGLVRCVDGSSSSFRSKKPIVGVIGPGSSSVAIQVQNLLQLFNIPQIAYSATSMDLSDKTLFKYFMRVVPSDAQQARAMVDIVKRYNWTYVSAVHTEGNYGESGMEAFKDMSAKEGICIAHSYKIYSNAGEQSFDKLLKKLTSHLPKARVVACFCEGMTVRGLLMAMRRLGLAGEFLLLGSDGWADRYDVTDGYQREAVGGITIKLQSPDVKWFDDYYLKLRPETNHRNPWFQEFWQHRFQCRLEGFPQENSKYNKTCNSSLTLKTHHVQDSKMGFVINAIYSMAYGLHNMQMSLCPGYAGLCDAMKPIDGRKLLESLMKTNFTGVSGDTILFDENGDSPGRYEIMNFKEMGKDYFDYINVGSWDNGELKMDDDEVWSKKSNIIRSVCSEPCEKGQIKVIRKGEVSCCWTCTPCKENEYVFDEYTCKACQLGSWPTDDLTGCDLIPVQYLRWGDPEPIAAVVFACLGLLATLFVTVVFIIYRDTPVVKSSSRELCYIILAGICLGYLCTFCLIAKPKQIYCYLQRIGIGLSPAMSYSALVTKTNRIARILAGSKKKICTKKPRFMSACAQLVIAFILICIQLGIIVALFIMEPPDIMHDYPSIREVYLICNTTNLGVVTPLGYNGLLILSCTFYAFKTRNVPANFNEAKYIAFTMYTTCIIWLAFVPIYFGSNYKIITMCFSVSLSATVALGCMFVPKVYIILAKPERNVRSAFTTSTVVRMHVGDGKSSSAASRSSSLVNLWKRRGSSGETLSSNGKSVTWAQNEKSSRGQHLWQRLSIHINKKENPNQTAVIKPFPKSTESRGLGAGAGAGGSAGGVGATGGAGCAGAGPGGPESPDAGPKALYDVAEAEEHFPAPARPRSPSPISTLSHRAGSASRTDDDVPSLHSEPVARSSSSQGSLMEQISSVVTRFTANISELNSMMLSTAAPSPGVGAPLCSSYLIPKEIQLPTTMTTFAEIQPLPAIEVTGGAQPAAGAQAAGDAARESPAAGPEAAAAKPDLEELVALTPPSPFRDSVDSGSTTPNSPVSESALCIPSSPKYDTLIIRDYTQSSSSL

Consider `CN1C(=O)N(c2ccc(C#Cc3ccc(F)cc3)cn2)[C@@H]2CC[C@@H]21` [Example 3, (−)-(1R,5S)-2-[5-(4-Fluoro-phenylethynyl)-pyridin-2-yl]-4-methyl-2,4-diazabicyclo[3.2.0]heptan-3-one], for which, at human mGlu5a receptor [1], the pEC50 is 8.40 and the Ki was 4 nM. Besides, at human mGlu5a receptor [2], the “mGlu5 PAM EC50” value is “inactive”, the Activity profile result is recorded as “NAM” and the “EC50 (nM) mGlu5 PAM assay” value is “inactive”.
Turning to `CN1C(=O)N(c2ccc(C#Cc3ccccc3)cn2)[C@@H]2CCC[C@@H]21` [Ref. 1; Ex. 106, reference compound], the Ki on human mGlu5a receptor [1] amounted to 8 nM. Also, on human mGlu5a receptor [2], the Activity profile entry is listed as “PAM” and the Efficacy was found to be 42%.
Regarding `CN1C(=O)N(c2ccc(C#Cc3cccc(F)c3)cn2)[C@@H]2CC[C@@H]21` [Example 2, (−)-(1R,5S)-2-[5-(3-Fluoro-phenylethynyl)-pyridin-2-yl]-4-methyl-2,4-diazabicyclo[3.2.0]heptan-3-one], at human mGlu5a receptor [1], the pEC50 was 8.30 and the Ki was found to be 5 nM. Also, on human mGlu5a receptor [2], the “mGlu5 PAM EC50” value is “inactive”, the Activity profile entry is “NAM” and the “EC50 (nM) mGlu5 PAM assay” value is “inactive”.
Take `CN1C(=O)N(c2ccc(C#Cc3cc(F)ccc3F)cn2)[C@@H]2CC[C@@H]21` [Example 4, (−)-(1R,5S)-2-[5-(2,5-Difluoro-phenylethynyl)-pyridin-2-yl]-4-methyl-2,4-diazabicyclo[3.2.0]heptan-3-one]: on human mGlu5a receptor [1], the pEC50 was 8.52 and the Ki was determined as 3 nM. Moreover, at human mGlu5a receptor [2], the “mGlu5 PAM EC50” value was “inactive”, the Activity profile result is listed as “NAM” and the “EC50 (nM) mGlu5 PAM assay” value was “inactive”.
Consider `CN1C(=O)N(c2ccc(C#Cc3cccc(F)c3)cn2)[C@@H]2CCC[C@@H]21` [Ref. 1; Ex. 109, reference compound], for which, on human mGlu5a receptor [1], the pEC50 is 7.92 and the Ki came out at 37 nM. For the same compound, at human mGlu5a receptor [2], the Activity profile entry was “PAM” and the Efficacy amounted to 37%.
With `CN1C(=O)N(c2ccc(C#Cc3ccccc3)cn2)[C@@H]2CC[C@@H]21` [Example 1, (−)-(1 S,5R)-2-methyl-4-(5-(phenylethynyl)pyridin-2-yl)-2,4-diazabicyclo[3.2.0]heptan-3-one], on human mGlu5a receptor [1], the pEC50 is 8.05 and the Ki turned out to be 9 nM. Moreover, at human mGlu5a receptor [2], the “mGlu5 PAM EC50” value was “inactive”, the Activity profile entry is “NAM” and the “EC50 (nM) mGlu5 PAM assay” value was “inactive”. Besides, in assay [3], the “minimal effective dose (anxiolytic activity)” value amounted to 0.1 mg/kg.

A word on the pEC50: it is −log10 of the EC50, conventionally taken in molar units. The term Ki denotes a dissociation constant, usually derived from enzyme kinetics or from competition with a known ligand.

The values above are taken from US11059766B2, “Ethynyl derivatives” (Hoffmann-La Roche Inc., priority 2015, dated 2021).
